Results reported in patent US12186329B2 (President and Fellows of Harvard College, priority 2018, dated 2025).
Where two headings read alike, the source gives them in different places.

Legend:
[1] = test system: human intestinal L-cells (NCI-H716); assay: GLP-1 secretion in human intestinal L-cells (NCI-H716); assay type: cell-based; settings: for GLP-1 secretion in vitro: NCI-H716 L-cells, 2 hours; for GLP-1 secretion in vitro by CA7S extracted from cecal contents of SG mice: material extracted from mouse cecum
DIO mice [2] = assay: In vivo enteral (duodenal and rectal) treatment of DIO mice: glucose, GLP-1, insulin, TGR5 expression; design: species or system mouse; settings: for Systemic GLP-1 levels: within 15 min
NCI-H716 cells = assay: Calcium measurement in NCI-H716 cells; assay type: cell-based, human
Experimental: The cells were allowed to grow for 2 days in complete RPMI media. […] The concentration of DMSO was kept constant throughout the treatments and used as a negative control. Cells were incubated at 37° C. in an atmosphere of 5% CO2 for 2 hours. […] Cells on cell culture plates were placed on ice and gently washed with PBS (GenClone).

DIO mice [3] = assay: In vivo CA7S oral gavage: systemic GLP-1; design: species or system mouse; settings: oral gavage 100 mg/kg, 5 hours post-treatment, vs PBS
DIO mice [4] = assay: In vivo CA7S gavage and oral glucose tolerance test (OGTT); design: species or system mouse; settings: gavage 100 mg/kg, vs vehicle
Experimental: (§1) Age matched, […] mice were kept on HFD and their blood glucose levels were monitored until average fasting glucose levels were >160 mg/dL. Animals were fasted for 4 hours on the day of the experiment. […] Three hours later, an OGTT was performed using an oral gavage of 2 mg/g oral D-glucose (Sigma-Aldrich, St. Louis, Mo.). Blood glucose levels were measured at baseline and at minutes 15, 30, 60 and 120 with a OneTouch glucometer.

Caco-2 cells = assay: Cell viability assay in Caco-2 cells; assay type: cell-based, human; settings: overnight incubation
Experimental: Cell viability assay. […] The concentration of DMSO was kept constant and used as a negative control. […] Cell viability was measured in Countess II automated cell counter (Invitrogen). Percentage relative viability was calculated compared to DMSO control.

pH stability test = assay type: physicochemical; settings: pH 1, 7.4 and 9, overnight at 37° C.
Experimental: pH stability test. […] Briefly, buffers of pH 1 (0.1 M HCl), pH 7.4 (PBS) and pH 9 (a 10 mM solution of ammonium formate adjusted to pH 9 with ammonium hydroxide) (all from Sigma) were prepared.

DIO mice [5] = assay: CA7S gavage and OGTT after lentiviral shRNA knockdown of GLP-1R; assay type: in vivo, mouse; settings: GLP-1R shRNA knockdown, gavage 100 mg/kg, vs PBS
Experimental: as §1

[6] = In vivo CA7S oral gavage: CA7S concentration in tissues and blood
Experimental: Extraction. Cecal, liver, and human fecal samples (approximately 50 mg each) and mouse portal veins were pre-weighed in lysis tubes containing ceramic beads (Precellys lysing kit tough micro-organism lysing VK05 tubes for cecal, fecal samples, and portal veins; tissue homogenizing CIKMix tubes for liver samples; Bertin technologies, Montigny-le-Bretonneux, France). 400p L of methanol containing 10 μM internal standard (GCA) was added and the tubes were homogenized in a MagNA Lyser (6000 speed for 90 s*2, 7000 speed for 60 s). 50 μl of mouse serum was collected in Eppendorf tubes, followed by addition of 50 μL of methanol containing 10 μM internal standard (GCA). After vortexing for 1 min, the sample was cooled to −20° C. for 20 min. All methanol-extracted tissue samples were centrifuged at 4° C. for 30 min at 15,000 rpm. […]
UPLC-MS. […] Samples were analyzed using an Agilent Technologies 12990 Infinity 11 UPLC system coupled online to an Agilent Technologies 6120 Quadrupole LC/MS spectrometer in negative electrospray mode with a scan range of 350-550 m/z (MSD settings: fragmentor—250, gain—3.00, threshold—150, Step size—0.10, speed (u/sec)—743). […] For quantification of the analytes, standard curves were obtained using known bile acids, and then each analyte was quantified based on the standard curve and normalized based on the internal standard. […]

[7] = CA7S concentration in tissues and blood after enteral CA7S (UPLC-MS bile acid analysis)
[8] = listed as Cholic acid-7-sulfate

**Q.** Which results are given for `C[C@H](CCC(=O)O)[C@H]1CC[C@H]2[C@@H]3[C@H](OS(=O)(=O)O)C[C@@H]4C[C@H](O)CC[C@]4(C)[C@H]3C[C@H](O)[C@]12C` [CA7S, cholic acid-7-sulfate]?
**A.** GLP-1 secretion after siRNA-mediated knockdown of TGR5 [1]: abolished GLP-1 secretion; GLP-1 secretion in vitro [1]: to a similar degree as TDCA in a dose-dependent manner; GLP-1 secretion in vitro [1, 8]: induces GLP-1 secretion in vitro better than the known GLP-1 inducer TDCA; GLP-1 secretion in vitro by CA7S extracted from cecal contents of SG mice [1]: also induced GLP-1 secretion in vitro; GLP-1 secretion in vitro by CA7S extracted from cecal contents of SG mice ([1]; listed as cholic acid-7-sulfate): exhibit activity inducing GLP-1 secretion in vitro; Insulin levels (DIO mice [2]; DIO mice, enteral, vs PBS): increased insulin levels; TGR5 expression in colon and terminal ileum (DIO mice [2]; DIO mice, enteral CA7S): increased in the colon, but not the terminal ileum; Blood glucose levels (DIO mice [2]; HFD-fed DIO mice, enteral 1 mg, 15 min, vs PBS): reduced blood glucose levels; Systemic GLP-1 levels (DIO mice [2]; HFD-fed DIO mice, enteral 1 mg, vs PBS): increased systemic GLP-1 levels; Systemic GLP-1 levels (DIO mice [2]; HFD-fed DIO mice, enteral 1 mg, vs PBS, listed as cholic acid-7-sulfate): induced GLP-1 levels; Calcium levels in L-cells (NCI-H716 cells): dose-dependent increase in calcium levels; Calcium levels in L-cells (NCI-H716 cells; [8]): increased calcium levels; Systemic levels of GLP-1 (DIO mice [3]): increased; Total and incremental areas under the glucose versus time curves (AUC and iAUC) (DIO mice [4]): significantly decreased; Toxicity in intestinal Caco cells (Caco-2 cells): no toxicity; Stability at different pHs (pH stability test): stable in a wide range of pHs; Glycemic curves and AUCs in OGTT in the absence of GLP-1R (DIO mice [5]): no significant differences in the glycemic curves or AUCs; CA7S concentration (mean ± SEM), portal vein ([6]; DIO mice, CA7S gavage 100 mg/kg, 5 hours): 13.2 ± 7.7 pmol/µL; CA7S accumulation in cecal contents (mean value) ([6]; oral gavage 100 mg/kg, 5 hours post-gavage): 15,000 picomol/mg wet mass; CA7S concentration (mean ± SEM), cecum ([7]; DIO mice, enteral CA7S): 2577 ± 185 pmol/mg; CA7S concentration (mean ± SEM), portal vein ([7]; DIO mice, enteral CA7S): 6.13 ± 2.11 pmol/mg; CA7S concentration (mean ± SEM), systemic blood ([7]; DIO mice, enteral CA7S): 0.5 ± 0.2 pmol/µL; CA7S in cecal contents (average) ([7]; administration of 1 mg via duodenal and rectal catheters): 2500 pmol/mg wet mass; cholic acid-7-sulfate in the cecum ([7]; dosing with 1 mg): ~2500 µM; Leak into systemic circulation and portal vein ([7]; ectopic (enteral) introduction): only minor amounts to leak into systemic circulation and in the portal vein

**Q.** Which results are given for `C[C@H](CCC(=O)O)[C@H]1CC[C@H]2[C@@H]3[C@H](O)C[C@@H]4C[C@H](O)CC[C@]4(C)[C@H]3C[C@H](O)[C@]12C` [CA, cholic acid, reference compound]?
**A.** GLP-1 secretion in vitro [1]: had no effect on GLP-1 secretion; GLP-1 secretion in vitro ([1]; listed as cholic acid): had no effect

**Q.** With `C[C@H](CCC(=O)NCCS(=O)(=O)O)[C@H]1CC[C@H]2[C@@H]3CC[C@@H]4C[C@H](O)CC[C@]4(C)[C@H]3C[C@H](O)[C@]12C` [TDCA, taurodeoxycholic acid, reference compound] as the compound, how does the “GLP-1 secretion after siRNA-mediated knockdown of TGR5” value ([1]; NCI-H716, TGR5 siRNA) read?
**A.** The value was “abolished”.
